One assay has as its target T1, EPS15 (Homo sapiens, UniProt P42566).
T1 construct: endogenous in cells; host or cells: Jurkat E6.1
T1 sequence (P42566 1-896): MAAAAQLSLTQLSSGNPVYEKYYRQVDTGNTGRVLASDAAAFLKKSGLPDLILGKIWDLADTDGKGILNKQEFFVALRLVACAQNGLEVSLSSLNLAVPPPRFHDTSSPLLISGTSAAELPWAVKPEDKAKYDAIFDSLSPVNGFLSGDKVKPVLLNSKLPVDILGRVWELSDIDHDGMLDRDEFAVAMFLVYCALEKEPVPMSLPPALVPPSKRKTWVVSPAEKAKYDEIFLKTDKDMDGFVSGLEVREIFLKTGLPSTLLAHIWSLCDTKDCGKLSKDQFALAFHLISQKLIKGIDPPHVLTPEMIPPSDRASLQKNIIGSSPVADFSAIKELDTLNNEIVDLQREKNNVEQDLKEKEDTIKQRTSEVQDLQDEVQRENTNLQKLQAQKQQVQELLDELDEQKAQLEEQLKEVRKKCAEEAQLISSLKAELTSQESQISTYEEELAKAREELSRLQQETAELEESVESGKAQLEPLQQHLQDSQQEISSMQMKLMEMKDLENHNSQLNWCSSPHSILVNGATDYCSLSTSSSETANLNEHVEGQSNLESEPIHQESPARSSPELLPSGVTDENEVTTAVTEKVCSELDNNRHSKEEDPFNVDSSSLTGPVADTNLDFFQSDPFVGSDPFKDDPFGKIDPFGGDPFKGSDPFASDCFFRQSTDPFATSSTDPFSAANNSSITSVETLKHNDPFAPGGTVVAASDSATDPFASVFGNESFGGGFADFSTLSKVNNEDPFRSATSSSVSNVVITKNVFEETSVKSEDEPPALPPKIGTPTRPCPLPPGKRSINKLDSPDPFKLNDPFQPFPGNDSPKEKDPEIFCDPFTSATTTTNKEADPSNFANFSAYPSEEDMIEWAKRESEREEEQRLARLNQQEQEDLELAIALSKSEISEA
As to the kind of experiment: Titration nHU, Western blot, endogenous EPS15 in Jurkat extract. The class given is binding. The note with it: source data of Fig 5, titration nHU, unit inferred. The text has this: (§1) To identify the partners of NPF motifs, we used the native holdup (nHU) assay that was recently developed by our team (Fig. 1B). The holdup approach has been extensively used to determine equilibrium dissociation constants of transient interactions mediated by PDZ and SH3 domains, 14-3-3, and human papilloma virus E6 proteins, and even nucleic acid-protein interactions[7],[30]–[35]. In the nHU experiments, a purified bait molecule, or a control compound, is immobilized on a resin at high concentration (typically 10 μM, or higher) and these resin stocks are subsequently mixed with dilute cell extracts. After a relatively long incubation, i.e., 2 h at 4 °C, the liquid phase is separated by centrifugation. This liquid phase contains the unbound prey molecules at near binding equilibrium that can be quantified using selective and quantitative analytical approaches, such as mass spectrometry. Therefore, proteins that interact with the bait molecule will appear to be depleted in the solvent phase and by measuring its relative concentration compared to the control nHU experiment, the degree of binding (θ) can be determined that can be converted to apparent steady-state dissociation constants, according to:1 θ=1−Ifree/Itot=Cbait/Cbait+Kapp where Itot and Ifree are the measured total and bait-depleted equilibrium mass spectrometry total ion intensities of prey proteins, Cbait is the bait molecule concentration and Kapp is the apparent dissociation constant.
(§2) Jurkat E6.1 cells (ECACC #88042803, RRID: CVCL_0367) were grown in RPMI (Gibco) medium completed with 10% FBS (Gibco BRL) and 40 μg/ml gentamicin (Gibco/Life Technology). To prepare total cell extracts, Jurkat cells were seeded onto T-175 flasks and grew until 3 × 10^6 cells/ml confluency. Cells were collected by 1000 g x 5 min centrifugation, washed with PBS and then lysed in ice-cold lysis buffer (Hepes-KOH pH 7.5 50 mM, NaCl 150 mM, Triton X-100 1%, cOmplete EDTA-free protease inhibitor cocktail 5x, TCEP 5 mM, glycerol 10%).
(§3) Cell suspensions were sonicated 4×20 sec with 1 sec long pulse on ice, then incubated rotating at 4 °C for 30 min. The lysates were centrifuged at 12,000 rpm 4 °C for 20 min and supernatant was kept. Total protein concentration was measured by standard Bradford method (Bio-Rad Protein Assay Dye Reagent #5000006) using a BSA calibration curve (MP Biomedicals #160069, diluted in lysis buffer) on a Bio-Rad SmartSpec 3000 spectrophotometer instrument.
(§4) Titration holdup experiments were carried out as described above using 25 μl saturated resins prepared. Briefly, we mixed control, or bait-saturated resins at various proportions by keeping the total resin amount and resin-analyte ratio constant during the experiment (for 25 μl we used 100 μl cell extract as analyte). In titration experiments with protein baits, bait concentration was determined as described above for the saturated resin stocks. Experiments were carried out at 4 °C for 2 h and recovered supernatants were subjected to western blot or dot blot analysis.
For Western blot, samples were mixed with 4x Laemmli Sample Buffer in 3:1 ratio. Equal amounts of samples were loaded on 6-10% acrylamide-gels (generally 16 μg). Transfer was done into PVDF membranes using a Trans-Blot Turbo Transfer System and Trans-Blot Turbo RTA Transfer Kit (BioRad, #1704275). For Dot blot, nHU samples were directly loaded on Nitrocellulose membranes using 48 Sample vacuum manifold (Cleaver Scientific) following the manufacturer’s recommendations. […]
For orientation: A western blot detects proteins with antibodies after separation by electrophoresis.

Another assay relates to POLE. As to the kind of experiment: Titration nHU, Western blot, endogenous POLE in Jurkat extract. The class given is binding, human. Particulars: source data of Fig 5, titration nHU, Jurkat extract; unit inferred.
Text: as §1, §2, §3, §4
For Western blot, samples were mixed with 4x Laemmli Sample Buffer in 3:1 ratio. Equal amounts of samples were loaded on 6-10% acrylamide-gels (generally 16 μg). Transfer was done into PVDF membranes using a Trans-Blot Turbo Transfer System and Trans-Blot Turbo RTA Transfer Kit (BioRad, #1704275). For Dot blot, nHU samples were directly loaded on Nitrocellulose membranes using 48 Sample vacuum manifold (Cleaver Scientific) following the manufacturer’s recommendations.
After 1 h of blocking in 5% milk, membranes were incubated overnight at 4 °C with primary antibodies in 5% milk-TBS-Tween.

Each structure is given as a SMILES string. Residues, ends and D or L forms follow the SMILES beside them.

One may read the Kd as the free concentration of one partner at which half of the binding sites on the other are occupied at equilibrium, for simple one-to-one binding. A low value points to higher affinity.

For `CC(C)C[C@H](NC(=O)[C@H](CCCNC(=N)N)NC(=O)[C@H](C)NC(=O)[C@H](Cc1ccccc1)NC(=O)[C@@H]1CCCN1C(=O)[C@H](CC(N)=O)NC(=O)[C@H](CCCNC(=N)N)NC(=O)[C@H](CCCNC(=N)N)NC(=O)[C@H](C)NC(=O)[C@H](C)NC(=O)[C@H](CC(=O)O)NC(=O)[C@H](CC(C)C)NC(=O)[C@H](CCCNC(=N)N)NC(=O)[C@H](C)NC(=O)[C@H](Cc1ccccc1)NC(=O)[C@@H]1CCCN1C(=O)[C@H](CC(N)=O)NC(=O)[C@H](CCCNC(=N)N)NC(=O)[C@H](CCCNC(=N)N)NC(=O)[C@H](C)NC(=O)[C@H](CC(=O)O)NC(=O)[C@H](CC(C)C)NC(=O)[C@H](CCCNC(=N)N)NC(=O)[C@H](C)NC(=O)[C@H](Cc1ccccc1)NC(=O)[C@@H]1CCCN1C(=O)[C@H](CC(N)=O)NC(=O)[C@H](CCCNC(=N)N)NC(=O)[C@H](CCCNC(=N)N)NC(=O)[C@H](C)NC(=O)[C@H](C)NC(=O)CCCCCNC(=O)CCCC[C@@H]1SC[C@@H]2NC(=O)N[C@@H]21)C(=O)N[C@@H](CC(=O)O)C(N)=O` [3xDONSON] (HELM PEPTIDE1{[O=C1N[C@H]2[C@H](CS[C@H]2CCCCC(=O)[*:2])N1].[O=C(CCCCCN[*:1])[*:2]].A.A.R.R.N.P.F.A.R.L.D.A.R.R.N.P.F.A.R.L.D.A.A.R.R.N.P.F.A.R.L.D.[am]}$$$$V2.0), the Kd was 0.8 µM on EPS15 and 0.1 µM in the assay with POLE.

Take `C[C@H](NC(=O)[C@H](C)NC(=O)[C@@H]1CCCN1C(=O)CNC(=O)CCCCCNC(=O)CCCC[C@@H]1SC[C@@H]2NC(=O)N[C@@H]21)C(=O)N[C@@H](C)C(=O)N[C@@H](CCCNC(=N)N)C(=O)N[C@@H](CCCNC(=N)N)C(=O)N[C@@H](CC(N)=O)C(=O)N1CCC[C@H]1C(=O)N[C@@H](Cc1ccccc1)C(=O)N[C@@H](CO)C(=O)N[C@@H](CC(=O)O)C(=O)N[C@@H](CCCNC(=N)N)C(=O)N[C@@H](CC(=O)O)C(=O)N[C@@H](CC(N)=O)C(=O)N[C@@H](CCCNC(=N)N)C(=O)N1CCC[C@H]1C(=O)N[C@@H](CCCNC(=N)N)C(N)=O` [DONSON_SYNJ1_C] (HELM PEPTIDE1{[O=C1N[C@H]2[C@H](CS[C@H]2CCCCC(=O)[*:2])N1].[O=C(CCCCCN[*:1])[*:2]].G.P.A.A.A.R.R.N.P.F.S.D.R.D.N.R.P.R.[am]}$$$$V2.0): the figures for the Kd at EPS15 and in the assay with POLE were over 20 µM and 8.5 µM, respectively.

`C[C@H](NC(=O)[C@H](C)NC(=O)[C@@H]1CCCN1C(=O)CNC(=O)CCCCCNC(=O)CCCC[C@@H]1SC[C@@H]2NC(=O)N[C@@H]21)C(=O)N[C@H](C(=O)N[C@@H](CCCNC(=N)N)C(=O)N[C@H](C(=O)N[C@@H](CC(N)=O)C(=O)N1CCC[C@H]1C(=O)N[C@@H](Cc1ccccc1)C(=O)N[C@@H](CO)C(=O)N[C@@H](CC(=O)O)C(=O)N[C@@H](CCCNC(=N)N)C(=O)N[C@@H](CC(=O)O)C(=O)N[C@@H](CC(N)=O)C(=O)N[C@@H](CCCNC(=N)N)C(=O)N1CCC[C@H]1C(=O)N[C@@H](CCCNC(=N)N)C(N)=O)[C@@H](C)O)[C@@H](C)O` [DONSON_SYNJ1_NC] (HELM PEPTIDE1{[O=C1N[C@H]2[C@H](CS[C@H]2CCCCC(=O)[*:2])N1].[O=C(CCCCCN[*:1])[*:2]].G.P.A.A.T.R.T.N.P.F.S.D.R.D.N.R.P.R.[am]}$$$$V2.0): the Kd on EPS15 and with POLE was over 200 µM throughout.

With `CC(C)C[C@H](NC(=O)[C@H](CCCNC(=N)N)NC(=O)[C@H](C)NC(=O)[C@H](Cc1ccccc1)NC(=O)[C@@H]1CCCN1C(=O)[C@H](CC(N)=O)NC(=O)[C@@H](NC(=O)[C@H](CCCNC(=N)N)NC(=O)[C@@H](NC(=O)[C@H](C)NC(=O)[C@H](C)NC(=O)[C@@H]1CCCN1C(=O)CNC(=O)CCCCCNC(=O)CCCC[C@@H]1SC[C@@H]2NC(=O)N[C@@H]21)[C@@H](C)O)[C@@H](C)O)C(=O)N[C@@H](CC(=O)O)C(=O)N[C@@H](CC(N)=O)C(=O)N[C@@H](CCCNC(=N)N)C(=O)N1CCC[C@H]1C(=O)N[C@@H](CCCNC(=N)N)C(N)=O` [DONSON_SYNJ1_N] (HELM PEPTIDE1{[O=C1N[C@H]2[C@H](CS[C@H]2CCCCC(=O)[*:2])N1].[O=C(CCCCCN[*:1])[*:2]].G.P.A.A.T.R.T.N.P.F.A.R.L.D.N.R.P.R.[am]}$$$$V2.0), the Kd was over 30 µM on EPS15 and 9.4 µM in the assay with POLE.

Values taken from article PMC12808100, “The non-catalytic DNA polymerase ε subunit is an NPF motif recognition protein” (Nature Communications, 2025).
